Measured values from patent US20120329158A1, “Methods of Plant Regeneration and Apparatus Therefor” (priority 2010, published 2012).

Tested on: sugarcane artificial seeds (Q208 and KQ228)
Assay: Germination and conversion of sugarcane artificial seeds into plantlets in liquid MS medium with or without auxins
Conditions: MS medium supplemented with small amounts of auxin; varieties Q208 and KQ228 (FIG. 34)
Procedure: Thirty-six artificial plant seeds (approx 15 mL) were placed into a sterile 250 mL Erlenmeyer flask with 85 mL of sterile MS liquid with 30 gL^−1 sucrose. Flasks were placed on the gyratory shaker trays at 120 rpm, 27° C.±1° C., and a 16 h photoperiod provided by cool white fluorescent tubes for 2-3 weeks. The media was decanted off and replaced every 3-4 days.
In this medium the artificial plant seeds germinated and produced normal plantlets within 3 weeks (FIG. 5). The seeds change from a transparent gel bead to a brown-black colour within the first few days of being placed into liquid culture. Within 7-10 days there is shoot production from the seeds and within two weeks the shoots are elongating and root production outside of the artificial plant seed begins. Within 3 weeks the plantlet has fully developed, with both extensive shoot and root production, outside of the gel. Variations in the rate of plantlet emergence are to be expected with different genotypes (FIG. 6 and FIG. 7). Typical growth conditions for liquid culture are 120 rpm and 27° C. with a 16 hour photoperiod.
In general, plantlets produced with growth regulators were stunted if hormone levels were 1 μM compared to those obtained from growth regulator-tee MS medium. As such, MS is typically used for the liquid culture medium. Regeneration of artificial plant seeds into plantlets at a rate of 70-90% is achievable. […]

Compound	conversion of artificial seeds to plantlets
O=C(O)CCCc1c[nH]c2ccccc12 [indole-3 butyric acid (IBA), indole-3-butyric acid]	improved conversion of seeds to plantlets
O=C(O)Cc1cccc2ccccc12 [α-naphthaleneacetic acid (NAA), α-naphthaleneacetic acid]	improved conversion of seeds to plantlets
